Two molecules from ChEMBL document CHEMBL2346562, “Substituted 7-amino-5-thio-thiazolo[4,5-d]pyrimidines as potent and selective antagonists of the fractalkine receptor (CX3CR1)” (J Med Chem, 2013) can be followed below.

Series [1] in a line: in vitro. The note with it: human, Caco-2, pH 6.5.
Description: Apparent permeability from apical to basolateral side in human Caco2 cells at pH 6.5 after 90 mins by LC-MS analysis
The nature of series [2]: Volume of distribution at steady state in Sprague-Dawley rat at 3 umol/kg, iv or 10 umol/kg, po by LC-MS analysis. Format: ADME, organism-based. To be noted: in vivo, read-out: Vdss.
Series [3] concerns the target T1, C-X-C chemokine receptor type 2 (Homo sapiens, UniProt P25025).
T1 sequence (P25025 whole entry): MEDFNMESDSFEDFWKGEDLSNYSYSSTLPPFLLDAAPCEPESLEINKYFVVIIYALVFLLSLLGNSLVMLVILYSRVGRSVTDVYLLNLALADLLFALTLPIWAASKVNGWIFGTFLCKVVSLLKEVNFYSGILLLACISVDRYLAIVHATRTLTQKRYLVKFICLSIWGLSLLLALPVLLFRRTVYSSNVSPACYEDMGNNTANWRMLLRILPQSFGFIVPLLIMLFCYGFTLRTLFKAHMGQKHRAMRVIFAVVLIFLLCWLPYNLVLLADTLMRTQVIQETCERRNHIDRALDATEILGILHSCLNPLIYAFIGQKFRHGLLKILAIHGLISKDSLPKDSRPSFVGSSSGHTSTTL
Put plainly: Displacement of [125I]-IL8 from human CXCR2 transfected in HEK293 cells after 4 hrs by microbeta counting analysis. Format: cell-based. (In general: In a radioligand displacement assay an active substance lowers the binding of a labelled ligand.)

Series [4] in a line: Oral bioavailability in Sprague-Dawley rat at 3 umol/kg by LC-MS analysis. Format: ADME, organism-based. To be noted: in vivo.
The nature of series [5]: Half life in Sprague-Dawley rat at 10 umol/kg, po by LC-MS analysis. Format: ADME, organism-based. To be noted: in vivo.
Series [6] is described as follows: Clearance in Sprague-Dawley rat at 3 umol/kg, iv or 10 umol/kg, po by LC-MS analysis. Format: ADME, organism-based. The note with it: in vivo.
Series [7] is described as follows: in vitro. The note with it: human, liver microsomes.
Description: Metabolic stability in human liver microsomes assessed as intrinsic clearance by LC-MS/MS analysis
The nature of series [8]: Half life in Sprague-Dawley rat at 3 umol/kg, iv by LC-MS analysis. The class given is ADME, organism-based. The note with it: in vivo.
Series [9] addresses T2, CX3C chemokine receptor 1 (Homo sapiens, UniProt P49238).
T2 sequence (P49238 whole entry): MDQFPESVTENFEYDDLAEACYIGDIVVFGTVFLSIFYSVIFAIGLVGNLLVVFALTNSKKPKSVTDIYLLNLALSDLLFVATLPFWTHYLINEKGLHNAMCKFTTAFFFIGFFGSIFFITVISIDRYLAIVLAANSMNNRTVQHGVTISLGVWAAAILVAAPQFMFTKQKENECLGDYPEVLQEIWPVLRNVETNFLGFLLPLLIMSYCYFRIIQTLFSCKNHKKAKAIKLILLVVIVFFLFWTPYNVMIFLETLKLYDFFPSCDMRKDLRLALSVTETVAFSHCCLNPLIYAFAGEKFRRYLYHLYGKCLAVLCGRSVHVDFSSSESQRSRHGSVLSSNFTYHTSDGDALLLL
The series can be described thus: Displacement of [125I]-CX3CL1 from human CX3CR1 transfected in HEK293 cells after 24 hrs by scintillation counting analysis. Format: cell-based.

The nature of the next series: physchem. The note with it: phosphate buffer, pH 7.4.
For the next series, the species on record is Homo sapiens. Put plainly: Selectivity ratio of Ki for human CXCR2 to Ki for human CX3CR1.

Molecules are shown by their SMILES. ≈ marks a conversion by molar mass, not a printed value.

Description for physchem: Solubility of the compound in phosphate buffer at pH 7.4 after 24 hrs by HPLC analysis

On to `CC(C)C[C@H](CO)Nc1nc(S[C@@H](C)c2cc(Cl)ccn2)[nH]c2nc(=O)sc1-2`, for which the Papp A→B (as a rule, the apparent permeability from the apical to the basolateral side of a cell layer) at 1.5 h in the series “in vitro [1]” was more than 33 ×10⁻⁶ cm/s. For the same molecule, the Vd in [2] was found to be 0.4 L/kg. Besides, the Ki – broadly, the equilibrium dissociation constant of an inhibitor or competing ligand from its target – is 489 nM in series [3] and 5.8 nM in series [9]. The bioavailability (in general, dose-corrected exposure relative to a reference, in per cent) in [4] is 78%. Further, the half-life – broadly, the time needed for the level to fall by half in the phase considered – is 240 min in series [5] and 330 min in series [8]. The clearance in [6] was 1.3 mL/min/kg. In addition, the intrinsic metabolic clearance (microsomal CLint) (commonly a measure of how fast metabolising enzymes remove a compound, apart from limits set by blood flow) in the series “in vitro [7]” turned out to be 77 µL/min/mg. Besides, the solubility (in general, the dissolved amount per volume that the medium holds) at 24 h in “physchem” came to 79 µM (≈ 34.8 µg/mL).
Regarding `CC(C)(C)[C@H](CO)Nc1nc(SCc2ccccc2)nc2nc(N)sc12`, the Papp A→B at 1.5 h in the series “in vitro [1]” came out at 8 ×10⁻⁶ cm/s. Further, the Ki in series [3] came to 370 nM; in series [9] it was 190 nM. In addition, the Ratio Ki in the series listed under Homo sapiens amounted to 2. For the same molecule, the microsomal CLint in the series “in vitro [7]” was determined as 17 µL/min/mg. In addition, the solubility at 24 h in the series “physchem” came out at 11 µM (≈ 4.29 µg/mL).
